This is an account of results in ChEMBL document CHEMBL1938315, “Tricyclic 3,4-dihydropyrimidine-2-thione derivatives as potent TRPA1 antagonists” (Bioorg Med Chem Lett, 2012).

Assay [1] concerns the target T1, Transient receptor potential cation channel subfamily A member 1 (Homo sapiens, UniProt O75762). Nature of the assay: Antagonist activity at human TRPA1 expressed in HEK293 cells assessed as inhibition of 5H-dibenzo[b,e]azepine-10-carboxylic acid methyl ester-induced increase in intracellular calcium by Fluo4-AM based fluorometric assay. It counts as functional, cell-based. On the technique in general: Calcium flux is commonly read through the fluorescence of an indicator in the cells.

For assay [2], the target named is T2, Transient receptor potential cation channel subfamily A member 1 (Rattus norvegicus, UniProt Q6RI86). Nature of the assay: Antagonist activity at rat TRPA1 expressed in HEK293 cells assessed as inhibition of BITC-induced increase in intracellular calcium concentration by Fluo4-AM based fluorometric assay. It counts as functional, cell-based.
T2 sequence (Q6RI86 whole entry): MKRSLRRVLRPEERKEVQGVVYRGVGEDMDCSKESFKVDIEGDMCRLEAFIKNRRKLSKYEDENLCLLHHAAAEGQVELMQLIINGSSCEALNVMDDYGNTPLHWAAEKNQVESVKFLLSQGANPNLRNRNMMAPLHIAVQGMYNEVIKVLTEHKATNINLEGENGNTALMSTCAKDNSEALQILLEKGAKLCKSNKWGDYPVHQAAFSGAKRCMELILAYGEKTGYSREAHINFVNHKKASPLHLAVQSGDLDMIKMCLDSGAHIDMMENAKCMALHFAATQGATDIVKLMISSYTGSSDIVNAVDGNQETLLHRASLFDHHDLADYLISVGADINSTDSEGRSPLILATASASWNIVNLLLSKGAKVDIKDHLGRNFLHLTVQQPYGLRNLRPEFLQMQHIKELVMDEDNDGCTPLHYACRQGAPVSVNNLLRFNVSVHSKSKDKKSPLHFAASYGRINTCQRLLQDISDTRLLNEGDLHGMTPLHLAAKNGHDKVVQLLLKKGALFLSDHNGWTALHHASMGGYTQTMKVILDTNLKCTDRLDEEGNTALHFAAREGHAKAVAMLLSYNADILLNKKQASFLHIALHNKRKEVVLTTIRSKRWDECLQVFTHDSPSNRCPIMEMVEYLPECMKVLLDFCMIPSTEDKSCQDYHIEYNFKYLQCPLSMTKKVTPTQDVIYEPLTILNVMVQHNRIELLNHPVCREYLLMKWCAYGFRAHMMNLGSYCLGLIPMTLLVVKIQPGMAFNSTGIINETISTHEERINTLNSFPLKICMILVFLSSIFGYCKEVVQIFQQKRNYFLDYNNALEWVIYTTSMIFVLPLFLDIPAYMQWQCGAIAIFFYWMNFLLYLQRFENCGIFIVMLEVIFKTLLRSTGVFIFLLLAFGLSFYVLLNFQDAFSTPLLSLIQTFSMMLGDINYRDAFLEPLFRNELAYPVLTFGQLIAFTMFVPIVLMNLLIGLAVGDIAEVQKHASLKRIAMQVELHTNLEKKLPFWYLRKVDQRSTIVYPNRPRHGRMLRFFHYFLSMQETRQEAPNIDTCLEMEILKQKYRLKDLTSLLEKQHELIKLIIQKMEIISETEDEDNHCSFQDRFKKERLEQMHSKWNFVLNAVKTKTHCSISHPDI
For assay [3], the target named is T1, Transient receptor potential cation channel subfamily A member 1. Nature of the assay: Antagonist activity at human TRPA1 expressed in HEK293 cells assessed as inhibition of N-methyl-maleimide-induced current by patch clamp assay.
Assay [4] has as its target T2, Transient receptor potential cation channel subfamily A member 1. Nature of the assay: Antagonist activity at rat TRPA1 expressed in HEK293 cells assessed as inhibition of N-methyl-maleimide-induced current by patch clamp assay. (In general: In patch-clamp work, channel activity is measured electrically.)

Structures are written as SMILES.

T1 sequence (O75762 whole entry): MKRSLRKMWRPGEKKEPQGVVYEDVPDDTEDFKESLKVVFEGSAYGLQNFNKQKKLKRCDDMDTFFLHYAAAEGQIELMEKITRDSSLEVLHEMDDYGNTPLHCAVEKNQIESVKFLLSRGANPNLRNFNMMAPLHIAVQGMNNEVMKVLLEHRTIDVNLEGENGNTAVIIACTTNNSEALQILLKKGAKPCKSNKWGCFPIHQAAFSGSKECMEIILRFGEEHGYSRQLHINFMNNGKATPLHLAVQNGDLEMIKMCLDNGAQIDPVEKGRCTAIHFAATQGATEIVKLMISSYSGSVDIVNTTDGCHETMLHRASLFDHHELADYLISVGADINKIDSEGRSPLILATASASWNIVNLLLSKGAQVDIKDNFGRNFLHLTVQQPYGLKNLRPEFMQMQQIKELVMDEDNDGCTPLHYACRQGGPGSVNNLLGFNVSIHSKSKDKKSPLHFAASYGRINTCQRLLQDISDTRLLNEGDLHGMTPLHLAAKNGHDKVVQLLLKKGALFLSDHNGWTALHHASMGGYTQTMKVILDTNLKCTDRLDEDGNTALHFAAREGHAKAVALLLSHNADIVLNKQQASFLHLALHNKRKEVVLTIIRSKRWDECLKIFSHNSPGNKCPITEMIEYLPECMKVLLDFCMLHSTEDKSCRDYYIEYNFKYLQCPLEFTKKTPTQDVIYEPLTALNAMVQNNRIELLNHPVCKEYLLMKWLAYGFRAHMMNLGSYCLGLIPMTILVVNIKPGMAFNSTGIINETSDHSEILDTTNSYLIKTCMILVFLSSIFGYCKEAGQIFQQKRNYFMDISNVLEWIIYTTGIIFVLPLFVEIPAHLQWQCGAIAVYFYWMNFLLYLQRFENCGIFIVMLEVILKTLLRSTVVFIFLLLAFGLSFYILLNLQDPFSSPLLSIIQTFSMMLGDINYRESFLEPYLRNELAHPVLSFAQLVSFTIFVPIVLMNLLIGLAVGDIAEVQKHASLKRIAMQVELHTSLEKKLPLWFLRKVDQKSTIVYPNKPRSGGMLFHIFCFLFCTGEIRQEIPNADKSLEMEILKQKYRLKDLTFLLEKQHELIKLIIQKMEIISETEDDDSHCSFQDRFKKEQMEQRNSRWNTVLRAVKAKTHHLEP

For orientation: IC50 means the concentration that inhibits the measured activity by half. `CCOC(=O)C1=C(c2ccccc2)NC(=S)NC1c1cccc(OC)c1` (stereo unspecified): the values for the half-maximal inhibitory concentration (IC50) in assay [1] and in assay [2] were over 10000 nM and 9500 nM, respectively. Turning to `O=C1CCCC2=C1C(c1ccccc1)NC(S)=N2` (stereo unspecified), the half-inhibitory concentration (IC50) in assay [1] is over 10000 nM.

For `O=C(O)c1cccc(C2NC(=S)NC3=C2C(=O)c2ccccc23)c1` (stereo unspecified), the concentration for half-maximal inhibition (IC50) in assay [1] and in assay [2] was over 10000 nM throughout. For `O=C1C2=C(NC(=S)N[C@H]2c2ccccc2)c2ccccc21`, the IC50 is 8100 nM in assay [1] and over 10000 nM in assay [2].

For the molecule `O=C1C2=C(NC(=S)NC2c2cccc(CO)c2)c2ccccc21` (stereo unspecified), the half-maximal inhibitory concentration (IC50) in assay [1] was 710 nM; in assay [2] it was 44 nM. Taken in the same sequence, the figures for `COc1ccc(Oc2cccc(C3NC(=S)NC4=C3C(=O)c3ccccc34)c2)cc1` (stereo unspecified) were 1500 nM and 160 nM. In the case of `O=C1C2=C(NC(=S)NC2c2cccc(F)c2)c2ccccc21` (stereo unspecified), the half-maximal inhibitory concentration (IC50) in assay [1] is 1100 nM; in assay [2], 390 nM. In the same order, the values of `O=C1C2=C(NC(=S)NC2c2ccccc2)c2ccccc21` (racemic) are 1800 nM and 1900 nM. On to `SC1=NC(c2ccccc2)=CC(c2ccccc2)N1` (stereo unspecified), for which the IC50 in assay [1] was over 10000 nM. Turning to `O=C1C2=C(NC(=S)N[C@@H]2c2ccccc2)c2ccccc21`, the values for the 50% inhibitory concentration (IC50) in assay [1] and in assay [2] were 770 nM and 310 nM, respectively.

Consider `COc1cc(OC)cc(C2NC(=S)NC3=C2C(=O)c2ccccc23)c1` (stereo unspecified), for which the IC50 in assay [1] came out at 2780 nM; in assay [2] it was 800 nM. In the case of `COCCCOc1cccc(C2NC(=S)NC3=C2C(=O)c2ccccc23)c1` (racemic), the IC50 was found to be 50 nM in assay [1] and 11 nM in assay [2]. In the same order, the values of `COc1ccccc1C1NC(=S)NC2=C1C(=O)c1ccccc12` (stereo unspecified) are over 10000 nM and 9400 nM. Regarding `S=C1NC2=C(CCc3ccccc32)C(c2ccccc2)N1` (stereo unspecified), in assay [1], the IC50 was over 10000 nM.

Turning to `COCCCOc1cccc([C@H]2NC(=S)NC3=C2C(=O)c2ccccc23)c1`, the IC50 stood at 13 nM in assay [1] and 4 nM in assay [2]. Taken in the same sequence, the figures for `COc1cccc(C2NC(=S)N(C)C3=C2C(=O)c2ccccc23)c1` (racemic) were 85 nM and 3 nM. In the same order, the values of `CN(C)CCOc1cccc(C2NC(=S)NC3=C2C(=O)c2ccccc23)c1` (stereo unspecified) are over 10000 nM and 8900 nM. Broadly, the EC50 is the concentration needed to bring the measured effect to its halfway point. As for `COc1cccc([C@@H]2NC(=S)NC3=C2C(=O)c2ccccc23)c1`, the half-maximal effective concentration (EC50) in assay [3] worked out at 12000 nM. Besides, the concentration for half-maximal inhibition (IC50) in assay [2] is over 10000 nM. `CC1=C(C(=O)c2ccccc2)C(c2ccccc2)NC(=S)N1` (stereo unspecified): in assay [1], the IC50 is over 10000 nM. Regarding `CC(C)c1ccc(NC(=O)Cn2cnc3c2c(=O)n(C)c(=O)n3C)cc1`, the half-inhibitory concentration (IC50) in assay [1] is over 10000 nM; in assay [2] it was 5600 nM. Taken in the same sequence, the figures for `COCCCOc1cccc(C2NC(=O)NC3=C2C(=O)c2ccccc23)c1` (racemic) were 1700 nM and 500 nM.

As for `O=C1NC2=C(C(=O)c3ccccc32)C(c2ccccc2)N1` (stereo unspecified), the IC50 in assay [1] and in assay [2] was over 10000 nM throughout. On to `S=C1NC2=C(CCCC2)C(c2ccccc2)N1` (stereo unspecified), for which the IC50 in assay [1] is over 10000 nM.

For `O=C1C2=C(NC(=S)NC2c2ccccc2F)c2ccccc21` (stereo unspecified), the IC50 is 2070 nM in assay [1] and 3390 nM in assay [2]. `S=C1NC2=C(CCC2)C(c2ccccc2)N1` (stereo unspecified): in assay [1], the IC50 was over 10000 nM. Consider `O=C1C2=C(NC(=S)NC2c2cccc(OCCO)c2)c2ccccc21` (stereo unspecified), for which the half-maximal inhibitory concentration (IC50) was 210 nM in assay [1] and 47 nM in assay [2]. Taken in the same sequence, the figures for `O=C1C2=C(NC(=S)NC2c2cccc(O)c2)c2ccccc21` (stereo unspecified) were 640 nM and 230 nM.

Consider `O=C1C2=C(NC(=S)NC2c2cccc(Br)c2)c2ccccc21` (stereo unspecified), for which the IC50 in assay [2] was 71 nM.

With `CN(C)CCCOc1cccc(C2NC(=S)NC3=C2C(=O)c2ccccc23)c1` (stereo unspecified), the IC50 in assay [1] and in assay [2] was over 10000 nM each time.

For `O=C1C2=C(NC(=S)NC2c2cccc(OCCCCO)c2)c2ccccc21` (stereo unspecified), the results for the IC50 in assay [1] and in assay [2] were 70 nM and 10 nM, respectively. As for `S=C(NCc1ccccc1)NCc1ccccc1`, the IC50 in assay [1] was over 10000 nM. Take `COc1cccc(C2C3=C(NC(=S)N2C)c2ccccc2C3=O)c1` (racemic): in assay [2], the concentration for half-maximal inhibition (IC50) worked out at 980 nM.

On to `COCCCOc1cccc([C@@H]2NC(=S)NC3=C2C(=O)c2ccccc23)c1`, for which the half-maximal inhibitory concentration (IC50) in assay [2] was over 10000 nM.

With `COc1cccc(C2NC(=O)NC3=C2C(=O)c2ccccc23)c1` (racemic), the values for the half-inhibitory concentration (IC50) in assay [1] and in assay [2] were 3900 nM and 4700 nM, respectively. Consider `COc1cccc([C@H]2NC(=S)NC3=C2C(=O)c2ccccc23)c1`, for which the EC50 came to 10 nM in assay [3] and 220 nM in assay [4]. Also, the IC50 in assay [1] came out at 75 nM; in assay [2], 12 nM. As to `COc1ccc(OC)c(C2NC(=S)NC3=C2C(=O)c2ccccc23)c1` (stereo unspecified), in assay [2], the IC50 was over 10000 nM. Same read-out and setting: the value for `COc1cccc(C2NC(=S)NC3=C2C(=O)c2ccccc23)c1OC` (stereo unspecified) was 2700 nM. As to `COc1ccc(C2NC(=S)NC3=C2C(=O)c2ccccc23)cc1` (stereo unspecified), the figures for the concentration for half-maximal inhibition (IC50) in assay [1] and in assay [2] were 3100 nM and 3500 nM, respectively.

Turning to `COc1cccc(C2NC(=S)NC3=C2C(=O)c2ccccc23)c1` (racemic), the results for the half-maximal inhibitory concentration (IC50) in assay [1] and in assay [2] were 130 nM and 20 nM, respectively.

On to `CCCCOc1cccc(C2NC(=S)NC3=C2C(=O)c2ccccc23)c1` (stereo unspecified), for which the values for the half-maximal inhibitory concentration (IC50) in assay [1] and in assay [2] were 310 nM and 70 nM, respectively. Take `SC1=NC2=C(CCC/C2=C\c2ccccc2)C(c2ccccc2)N1` (stereo unspecified): in assay [1], the IC50 is over 10000 nM.
